# Measurements taken from patent publication US8163871B2, “Enzymatic reactions in the presence of keto acids” (Unigene Laboratories, Inc., priority 2004, dated 2012).
# Test system: peptidylglycine α-amidating monooxygenase (PAM)
# Experiment: α-Amidation of rhPTH(1-31)Gly32-OH to rhPTH(1-31)-NH2 with PAM in the presence of α-keto acids/esters (CEX-HPLC area %)
# Assay type: biochemical
# Details: 4 mg/mL rhPTH(1-31)Gly32-OH, 15,000 U/mL PAM, MES pH 6.3-6.5, 4 hours at 37° C.
# Description: Because the R group is unchanged in this reaction, a large number of R moieties is possible. Applicants have tested a number of keto acids (or corresponding esters or salts thereof), and have reported their efficacy in Table 1 below for the amidation of recombinant human parathyroid hormone truncate (first 31 amino acids of PTH followed by C-terminal glycine). Amidation using catalase is also reported in the footnotes to Table 1. […] A preferred concentration was chosen for each compound. Also, separate controls are therefore used with respect to each of the compounds tested in Table 1, so that each compound's performance may be compared to its corresponding control. […] The control values that are set forth in Table 1 are typical values observed for amidation of rhPTH(1-31)Gly32-OH in the absence of the reaction-enhancing compounds of the invention.
# To determine the information in Table 1 below, stock solutions of all reagents were prepared in water. Amidations were carried out under the following conditions: 4 mg/mL rhPTH(1-31)Gly32-OH, 30 mM 2-morpholinoethanesulfonic acid (MES) pH [6.3-6.5], 0.5 μM cupric sulfate, 5 mM potassium iodide, 2 mM ascorbate, [0-1%] ethanol and 15,000 U/mL PAM. All reactions were incubated for 4 hours at 37° C. Reagents were added in the following order: rhPTH(1-31)Gly32-OH, water, MES, potassium iodide, ethanol, cupric sulfate, α-keto acid or ester, ascorbate and PAM. All reactions were acidified to pH 2.0 with 6% trifluoroacetic acid and analyzed by CEX-HPLC (area %) to detect formation of the desired product rhPTH(1-31)NH2.
molecule,measurement,setting,value
COC(=O)C(C)=O [Methyl pyruvate],% Conversion,50 mM compound,86%
CC(=O)C(=O)[O-].[Na+] [Sodium pyruvate],% Conversion,8 mM compound,95%
O=C(O)C(=O)c1ccccc1 [Benzoylformic acid],% Conversion,10 mM compound,82%
"CCC(C)C(=O)C(=O)[O-].[Na+] (stereo not shown) [3-Methyl-2-oxopentanoic acid, sodium salt]",% Conversion,10-150 mM compound,≦61%
"2-Keto glutaric acid, sodium salt",% Conversion,10 mM compound,76%
"CCC(=O)C(=O)[O-].[Na+] [2-Ketobutyric acid, sodium salt]",% Conversion,16 mM compound,96%
"CC(C)CC(=O)C(=O)[O-].[Na+] [4-Methyl-2-oxopentanoic acid, sodium salt]",% Conversion,10-150 mM compound,<48%
CCOC(=O)C(C)=O [Ethyl pyruvate],% Conversion,50 mM compound,89%
"CC(C)C(=O)C(=O)[O-].[Na+] [3-Methyl-2-oxobutanoic acid, sodium salt]",% Conversion,64 mM compound,78%
CC(=O)C(=O)O [Pyruvic acid],% Conversion,"6 mM compound, average of triplicate values",86^a %
